Test results taken from patent US8404664B2, “Phosphonated Rifamycins and uses thereof for the prevention and treatment of bone and joint infections” (Targanta Therapeutics, Inc., priority 2005, dated 2013).
Converted amounts (≈) assume the structure as drawn.

Tests used:
S. aureus ATCC 13709 = test: Antibacterial susceptibility (MIC), NCCLS broth microdilution; format: cell-based; conditions: for Antibacterial activity (in words, summary of Table 1): summary over the strains of Table 1
Method in brief: (§1)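 Two-fold serial dilutions in DMSO tested in cation-adjusted Mueller Hinton broth per NCCLS M26-A, 5×10^5 c.f.u./mL inoculum, 1.25% final DMSO, duplicates.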

[1] = tested on: S. aureus ATCC 43300 (Fluoroquinolone sensitive MRSA); test: as above; format: cell-based
Method in brief: as §1

[2] = tested on: S. aureus BK85 (Fluoroquinolone resistant MRSA); test: as above; format: cell-based
Method in brief: as §1

S. aureus RN4220 = test: as above; format: cell-based; conditions: CAMHB, 37° C., 18 h
Method in brief: as §1

[3] = tested on: E. coli LBB925 (tolC mutant); test: as above; format: cell-based; conditions: for Minimum inhibitory concentration, E. coli LBB925: tolC mutant
[4] = tested on: S. aureus (chronic bone infection); test: Treatment of chronic osteomyelitis caused by S. aureus in rat model; format: in vivo; conditions: for Effect on bacterial titer in bone infection versus the untreated control (figure legends) / Decrease in bacterial titer: prodrug iv at 20 mg/kg parent equivalent; for Effect on bacterial titer in bone infection versus the untreated control (figure legends): regimen of the figure, 4 weeks post-infection; for Decrease in bacterial titer: q24hx4+q4 days, FIGS. 3, 4, 5
Source text: To appraise the ability of bisphosphonated prodrugs of Rifamycin derivatives in treating chronic bone infections, a comparison was made between parent compounds 9, 56, 69, rifabutin and rifalazil (all of which are non-bisphosphonated rifamycin derivatives), and their corresponding bisphosphonated prodrugs, respectively 11, 62, 71, 36 and 81, when used to treat chronically (14- to 28-day) infected rats for 4 weeks of antimicrobial therapy.
In this experiment, rats were infected as described in Example 4 and treated with either 20 mg/kg of body weight of the specific rifamycin derived antibacterial agent subcutaneously, or a molar equivalent dose of its bisphosphonated prodrug intravenously according to the indicated schedule after instillation of bacteria. The standard controls involving no treatment and a subcutaneous treatment of 20 mg/kg of Rifampicin daily were also included. The rats were humanely sacrificed at the conclusion of the experiment and the bacterial titers in the infected tibiae were determined.
This experiment was performed with 20 mg/kg of body weight of rifamycin derivative 9 subcutaneously or with 32 mg/kg of its prodrug 11 (corresponding to 20 mg/kg of 9) intravenously on each of the 20th, 24th, 28th, 32nd, 36th, 40th and […] days (q4 days) after instillation of bacteria. Alternatively, 11 was administered by the same route and at the same dose on the 20th, 21st, 22nd, 23rd, 30th, 37th, 44th and 47th days (q24hx4+q7d) after the instillation of bacteria. The same controls (no treatment or daily subcutaneous 20 mg/kg dose of rifampicin) were used. The rats were humanely sacrificed on the 48th day after the initiation of infection and the bacterial titers in the infected tibiae were determined.
This experiment was also executed in which similarly infected rats were treated with either 20 mg/kg of body weight of rifabutin subcutaneously or with 33.4 mg/kg of its prodrug 36 (corresponding to 20 mg/kg of rifabutin) intravenously on each of the 28th, 32nd, 36th, 40th, 44th, 48th and 52nd days (q4 days) after instillation of bacteria. The same controls (no treatment or daily subcutaneous 20 mg/kg dose of rifampicin) were used. The rats were humanely sacrificed on the 55th day after the initiation of infection and the bacterial titers in the infected tibiae were determined.
This experiment was also executed in which similarly infected rats were treated with either 20 mg/kg of body weight of the rifamycin derived antibacterial agent 56 subcutaneously or with 26 mg/kg of its prodrug 62 (corresponding to 20 mg/kg of 56) intravenously on each of the 27th, 28th, 29th, 30th, 34th, 38th, 42nd, 46th and 50th days (q24hx4+q4 days) after instillation of bacteria. The same controls (no treatment or daily subcutaneous 20 mg/kg dose of rifampicin) were used. The rats were humanely sacrificed on the 51^St day after the initiation of infection and the bacterial titers in the infected tibiae were determined.
This experiment was also executed in which similarly infected rats were treated with either 20 mg/kg of body weight of the rifamycin derived antibacterial agent 69 subcutaneously or with 28 mg/kg of its prodrug 71 (corresponding to 20 mg/kg of 69) intravenously on each of the 18th, 19th, 20th, 21st, 25th, 29th, 33rd, 37th, 41st and 45th days (q24hx4+q4 days) after instillation of bacteria. The same controls (no treatment or daily subcutaneous 20 mg/kg dose of rifampicin) were used. The rats were humanely sacrificed on the 46th day after the initiation of infection and the bacterial titers in the infected tibiae were determined.

[5] = tested on: S. aureus ATCC 13709 Novobiocin and Rifampicin resistant variant; test: microbe, parasite or virus in culture; format: cell-based; conditions: for Minimum inhibitory concentration, S. aureus ATCC 13709 variant: Novobiocin and Rifampicin resistant variant
Method in brief: as §1

[6] = FIG. 1: 9 20 mg/kg sc q4 days, 11 32 mg/kg iv q4d or q24hx4+q7d

Row | Compound | Minimum inhibitory concentration, S. aureus ATCC 13709 (S. aureus ATCC 13709) [µg/mL] | Minimum inhibitory concentration, S. aureus ATCC 43300 [1] [µg/mL] | Minimum inhibitory concentration, S. aureus BK85 [2] [µg/mL] | Minimum inhibitory concentration, S. aureus RN4220 (S. aureus RN4220) [µg/mL] | Minimum inhibitory concentration, E. coli LBB925 [3] [µg/mL] | Effect on bacterial titer in bone (in words) [4, 6] | Effect on bacterial titer in bone infection versus the untreated control (figure legends) [4] | MIC (S. aureus ATCC 13709; Staphylococcus aureus, ATCC13709, read-out: Minimum inhibitory concentration, S. aureus ATCC 13709) [µg/mL] | MIC ([1]; Staphylococcus aureus, read-out: Minimum inhibitory concentration, S. aureus ATCC 43300) [µg/mL] | MIC ([2]; Staphylococcus aureus, read-out: Minimum inhibitory concentration, S. aureus BK85) [µg/mL] | MIC (S. aureus RN4220; Staphylococcus aureus, RN4220, read-out: Minimum inhibitory concentration, S. aureus RN4220) [µg/mL] | MIC ([3]; Escherichia coli, read-out: Minimum inhibitory concentration, E. coli LBB925) [µg/mL] | Effect on bacterial titer in bone (in words) ([4]; 20 mg/kg sc once daily, 15th to 28th day after infection, FIG. 6) | Antibacterial activity (in words, summary of Table 1) (S. aureus ATCC 13709) | Activity against the Rifampicin resistant variant of S. aureus ATCC13709 (in words) [5] | Minimum inhibitory concentration, S. aureus ATCC 13709 variant [5] [µg/mL] | Decrease in bacterial titer [4]
1 | 3-(((4-(2-(3-((bisphosphonomethyl)carbamoyl)propanoyloxy)ethyl)-1-piperazinyl)imino)methyl)rifamycin [Compound 11] | 0.125 | 0.25 | 0.25 | 0.25 | 32 | not statistically significant | small but not statistically significant effect | – | – | – | – | – | – | – | – | – | –
2 | CO[C@H]1/C=C/O[C@@]2(C)Oc3c(C)c(O)c4c(O)c(c(/C=N/N5CCN(CCO)CC5)c(O)c4c3C2=O)NC(=O)/C(C)=C\C=C\[C@H](C)[C@H](O)[C@@H](C)[C@@H](O)[C@@H](C)[C@H](OC(C)=O)[C@@H]1C [Compound 9, 3-(((4-(2-hydroxyethyl)-1-piperazinyl)imino)methyl)rifamycin] | – | – | – | – | – | completely ineffective | – | 0.016 (≈ 0.0188 µM) | 0.016 (≈ 0.0188 µM) | 0.016 (≈ 0.0188 µM) | 0.016 (≈ 0.0188 µM) | 16 (≈ 18.8 µM) | smaller but still statistically significant reduction | – | – | – | –
3 | CO[C@H]1/C=C/O[C@@]2(C)Oc3c(C)c(O)c4c(=O)c(c5oc6cc(N7CCN(CCOC(=O)CCC(=O)NC(P(=O)(O)O)P(=O)(O)O)CC7)cc(O)c6nc-5c4c3C2=O)NC(=O)/C(C)=C\C=C\[C@H](C)[C@H](O)[C@@H](C)[C@@H](O)[C@@H](C)[C@H](OC(C)=O)[C@@H]1C.N.N [Compound 62] | 0.0039 | 0.0078 | 0.0078 | 0.0078 | >128 | – | small but statistically significant effect | – | – | – | – | – | – | very low MICs | complete lack of activity | >128 | approximately 1 logarithmic order of magnitude
4 | CO[C@H]1/C=C/O[C@@]2(C)Oc3c(C)c(O)c4c(=O)c(c5oc6cc(N7CCN(CCC(=O)c8ccc(OCCCC(P(=O)(O)O)P(=O)(O)O)cc8)CC7)cc(O)c6nc-5c4c3C2=O)NC(=O)/C(C)=C\C=C\[C@H](C)[C@H](O)[C@@H](C)[C@@H](O)[C@@H](C)[C@H](OC(C)=O)[C@@H]1C [Compound 71] | 0.0019 (≈ 0.00152 µM) | 0.0019 (≈ 0.00152 µM) | 0.0019 (≈ 0.00152 µM) | 0.0039 (≈ 0.00312 µM) | >128 | – | small but statistically significant effect | – | – | – | – | – | – | very low MICs | complete lack of activity | 128 (≈ 102 µM) | approximately 1 logarithmic order of magnitude
5 | CO[C@H]1/C=C/O[C@@]2(C)Oc3c(C)c(O)c4c(=O)c(c5oc6cc(N7CCN(CC(C)C)CC7)cc(O)c6nc-5c4c3C2=O)NC(=O)/C(C)=C\C=C\[C@H](C)[C@H](OC(=O)CCCOC(=O)CCC(=O)NC(P(=O)(O)O)P(=O)(O)O)[C@@H](C)[C@@H](O)[C@@H](C)[C@H](OC(C)=O)[C@@H]1C [Compound 81, 21-O-(4-((3-(bisphosphonomethyl)carbamoyl)propanoyloxy)butanoyl)-1′,4-Didehydro-1-deoxy-1,4-dihydro-3′-hydroxy-5′-[4-(2-methylpropyl)-1-piperazinyl]-1-oxorifamycin VIII] | 0.001 (≈ 0.000769 µM) | 0.001 (≈ 0.000769 µM) | 0.001 (≈ 0.000769 µM) | 0.001 (≈ 0.000769 µM) | >128 | – | small but statistically significant effect | – | – | – | – | – | – | very low MICs | complete lack of activity | >128 | approximately 1 logarithmic order of magnitude
